Key:
Assay in all cases: relative viability (nuclei count vs DMSO), 5 days (fraction); higher = more cells survive
[1] = compound: C1COCCN1C2=NC(=NC3=C2OC4=C3C=CC=N4)C5=CC(=CC=C5)NC(=O)C6=CN=C(C=C6)N + Nc1ncn([C@H]2C[C@H](O)[C@@H](CO)O2)c(=O)n1 [Decitabine] (partner 2 µM)
Summary of the method: (§1)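 Five library-drug doses in √10 steps were combined with a fixed anchor-drug dose, or a single drug was given alone, by pin tool to lung cancer cell lines in 1536-well plates the day after seeding. Nuclei were stained and counted after 5 days. Relative viability is the nuclei count in treated wells over that in vehicle wells, taken as the median of duplicate plates.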

[2] = compound: CN1CCC(CNc2ccc3ncc(-c4cccc(OC(F)(F)F)c4)n3n2)CC1 [SGI-1776] + Nc1ncn([C@H]2C[C@H](O)[C@@H](CO)O2)c(=O)n1 [Decitabine] (partner 2 µM)
Summary of the method: as §1

[3] = compound: C1COCCN1C2=NC(=NC3=C2OC4=C3C=CC=N4)C5=CC(=CC=C5)NC(=O)C6=CN=C(C=C6)N + COc1cccc2cc(-c3nc([C@H]4CC[C@H](C(=O)O)CC4)n4ncnc(N)c34)[nH]c12 [OSI-027] (partner 0.5 µM)
Summary of the method: as §1

[4] = compound: Nc1ccccc1NC(=O)c1ccc(CNC(=O)OCc2cccnc2)cc1 [Entinostat] + COc1cc2c(Oc3ccc(NC(=O)C4(C(=O)Nc5ccc(F)cc5)CC4)cc3F)ccnc2cc1OCCCN1CCOCC1 [Foretinib] (partner 0.25 µM)
Summary of the method: as §1

Cell Line	relative viability ([1]; first compound 0.02 µM)	relative viability ([1]; first compound 0.06325 µM)	relative viability ([1]; first compound 0.2 µM)	relative viability ([1]; first compound 0.6325 µM)	relative viability ([1]; first compound 2 µM)	relative viability ([2]; first compound 0.08 µM)	relative viability ([2]; first compound 0.8 µM)	relative viability ([2]; first compound 2.53 µM)	relative viability ([2]; first compound 8 µM)	relative viability ([3]; first compound 0.02 µM)	relative viability ([3]; first compound 0.06325 µM)	relative viability ([3]; first compound 0.2 µM)	relative viability ([3]; first compound 0.6325 µM)	relative viability ([3]; first compound 2 µM)	relative viability ([4]; first compound 0.02 µM)	relative viability ([4]; first compound 0.06325 µM)	relative viability ([4]; first compound 0.2 µM)	relative viability ([4]; first compound 0.6325 µM)	relative viability ([4]; first compound 2 µM)
NCI-H2170	0.493	0.488	0.48	0.551	0.506	0.478	0.441	0.393	0.475	0.796	0.76	0.651	0.786	0.596	0.978	1.05	0.964	0.597	0.613
NCI-H2342	0.724	0.727	0.751	0.743	0.693	0.776	0.707	0.658	0.712	0.666	0.603	0.661	0.615	0.649	1.04	1.22	0.947	0.924	0.787
NCI-H2347	0.603	0.657	0.651	0.755	0.575	0.631	0.673	0.639	0.577	0.384	0.504	0.367	0.355	0.311	0.837	0.812	0.454	0.254	0.37
NCI-H2405	0.671	0.674	0.763	0.767	0.694	0.715	0.683	0.716	0.64	0.578	0.668	0.618	0.599	0.585	1.06	1.11	0.979	0.902	0.614
NCI-H3122	0.391	0.354	0.366	0.487	0.322	0.414	0.457	0.452	0.47	0.998	1.01	0.835	0.977	0.347	0.992	0.995	0.999	0.973	0.776
PC-3 [JPC-3]	0.846	0.8		0.843	0.755	0.816	0.824	0.786	0.71	0.849	0.839	0.697	0.704	0.54	0.988	0.977	0.871	0.732	0.41
PC-14	0.182	0.26	0.226	0.295	0.173	0.238	0.264	0.168	0.124	0.976	1.2	0.977	0.554	0.233	0.991	0.951	0.969	0.441	0.232
RERF-LC-KJ	0.71	0.826	0.617	0.758	0.585	0.67	0.652	0.566	0.363	0.558	0.594	0.558	0.458	0.462	0.853	0.856	0.84	0.516	0.285
SK-LU-1	0.595	0.715	0.609	0.616	0.46	0.671	0.665	0.658	0.645	0.38	0.36	0.348	0.329	0.266	0.865	0.847	0.836	0.589	0.447
SK-MES-1	0.407	0.491	0.408	0.643	0.356	0.365	0.372	0.367	0.303	0.572	0.664	0.589	0.426	0.337	1.08	1.09	1.15	0.96	0.712
SW 900	0.402	0.42	0.448	0.648	0.558	0.368	0.412	0.49	0.456	0.759	0.492	0.43	0.467	0.357	0.946	0.878	1.04	0.674	0.533
SW 1573	0.555	0.472	0.565	0.543	0.422	0.598	0.459	0.483	0.299	0.592	0.776	0.75	0.477	0.371	0.966	0.927	0.877	0.917	0.7
